According to the CheMixHub ionic liquid set:

Assay: xn = mol fraction of the nth substance listed

O=C1CCCCCN1 + CCCC[N+](CCCC)(CCCC)CCCC.[Cl-] + O
electrical conductivity [S/m], 101 kPa
Details | x1 = 0.0018, x2 = 0.0018 | x1 = 0.0197, x2 = 0.0197 | x1 = 0.0481, x2 = 0.0481 | x1 = 0.0862, x2 = 0.0862 | x1 = 0.146, x2 = 0.146
293.15 K | – | 0.798 | – | – | 0.593
295.65 K | – | 0.788 | – | – | 0.6211
298.15 K | – | 0.778 | 0.799 | 0.775 | 0.639
300.65 K | – | 0.769 | 0.8 | 0.7743 | 0.6505
303.15 K | – | 0.768 | 0.795 | 0.778 | 0.659
305.65 K | – | 0.767 | 0.788 | 0.775 | 0.667
308.15 K | 0.219 | 0.767 | 0.7825 | 0.7733 | 0.677
310.65 K | 0.219 | 0.763 | 0.779 | 0.768 | 0.686
313.15 K | 0.221 | 0.758 | 0.776 | 0.7623 | 0.6923
315.65 K | 0.222 | 0.753 | 0.77 | 0.757 | 0.695
318.15 K | 0.222 | 0.744 | 0.7621 | 0.7513 | 0.699
320.65 K | 0.223 | 0.735 | 0.7545 | 0.7434 | 0.699
323.15 K | 0.223 | 0.725 | 0.746 | 0.736 | 0.698
325.65 K | 0.224 | 0.716 | 0.737 | 0.727 | 0.697
328.15 K | 0.224 | 0.704 | – | 0.719 | 0.6938
330.65 K | 0.224 | 0.693 | – | 0.7105 | 0.687
333.15 K | 0.225 | 0.681 | – | 0.7023 | 0.6811

CCCOCCO + CCCC[n+]1ccn(C)c1.[Br-]
100 kPa, x2 = 0
Details | viscosity [mPa·s]
298.15 K | 2.38
303.15 K | 2.11
308.15 K | 1.88
313.15 K | 1.69

O + CCCCCCCCCCCCCC[n+]1ccccc1.O=C([O-])C(O)c1ccccc1 + NCC(=O)O
101 kPa, x2 = 0, x3 = 0
Details | electrical conductivity [S/m]
293.15 K | 0.00012
298.15 K | 0.00015
303.15 K | 0.00016
308.15 K | 0.00017
313.15 K | 0.00019

CCCCCC[n+]1ccn(C)c1.c1nnn[n-]1 + CCCCCCCC[P+](CC)(CC)CC.O=S(=O)([N-]S(=O)(=O)C(F)(F)F)C(F)(F)F
100 kPa
Details | viscosity [mPa·s]
278.15 K, x2 = 0.301 | 990
283.15 K, x2 = 0.597 | 409
283.15 K, x2 = 0.697 | 347
288.15 K, x2 = 0.4 | 414
298.15 K, x2 = 0.597 | 156
303.15 K, x2 = 0.4 | 156
303.15 K, x2 = 0.5 | 129
303.15 K, x2 = 0.899 | 90
308.15 K, x2 = 0.5 | 100
308.15 K, x2 = 0.597 | 93
308.15 K, x2 = 0.697 | 82
313.15 K, x2 = 0.697 | 66
318.15 K, x2 = 0.301 | 77
318.15 K, x2 = 0.4 | 74
318.15 K, x2 = 0.597 | 61
323.15 K, x2 = 0.1 | 86
323.15 K, x2 = 0.5 | 52

CC1COC(=O)O1 (stereo unspecified) + CC[n+]1ccn(C)c1.O=S(=O)([N-]S(=O)(=O)C(F)(F)F)C(F)(F)F
101.3 kPa, x2 = 0
Details | viscosity [mPa·s]
303.15 K | 2.246
318.15 K | 1.73
338.15 K | 1.294

O=C1CCCC1 + CCCC[n+]1ccn(C)c1.F[P-](F)(F)(F)(F)F
298.15 K, 101.3 kPa
Details | viscosity [mPa·s]
x1 = 0.0936 | 175
x1 = 0.3093 | 66
x1 = 0.4012 | 42.2
x1 = 0.5514 | 19.23

CCCC[n+]1ccn(C)c1.F[B-](F)(F)F + CC(C)O
viscosity [mPa·s], 101 kPa
Details | 293.15 K | 298.15 K | 303.15 K | 308.15 K | 313.15 K | 318.15 K | 323.15 K
x1 = 0.0804 | 4.9 | 4.2 | 3.89 | 3.46 | 2.84 | 2.16 | 1.48
x1 = 0.1585 | 7.6 | 7 | 6.52 | 5.78 | 4.67 | 3.41 | 2.15
x1 = 0.2402 | 11.4 | 10.3 | 9.5 | 8.4 | 6.8 | 4.9 | 3.01
x1 = 0.3505 | 16 | 15 | 14 | 12.4 | 9.9 | 7.1 | 4.34
x1 = 0.4422 | 20.7 | 19.7 | 18.2 | 16 | 12.9 | 9.3 | 5.78
x1 = 0.5619 | 28.4 | 26.7 | 24.9 | 21.9 | 17.6 | 12.9 | 8.3
x1 = 0.6491 | 36.8 | 34.3 | 31.3 | 27.6 | 22.2 | 16.5 | 10.8
x1 = 0.7409 | 48.5 | 44.8 | 40 | 34.6 | 27.9 | 20.9 | 14.1
x1 = 0.8458 | 69 | 61.6 | 53.7 | 45.8 | 36.8 | 27.8 | 19.3
x1 = 0.9327 | 95 | 82 | 70 | 58.8 | 47.1 | 35.9 | 25.4
x1 = 1 | 125 | 105 | 88 | 72 | 57.7 | 44 | 31.6

CN(CCO)CCO + CCCCCC[n+]1ccn(C)c1.F[B-](F)(F)F
101 kPa, x1 = 1
Details | viscosity [mPa·s]
303.15 K | 57.5
308.15 K | 44.2
313.15 K | 35

CCC[N+]1(C)CCCC1.O=S(=O)([N-]S(=O)(=O)C(F)(F)F)C(F)(F)F + CS(C)=O
electrical conductivity [S/m], 101 kPa, frequency 0.0005 MHz
Details | 278.15 K | 288.15 K | 298.15 K | 308.15 K | 318.15 K | 328.15 K | 338.15 K | 348.15 K | 358.15 K
x1 = 0.05995 | – | 0.967 | 1.18 | 1.4 | 1.62 | 1.85 | 2.08 | 2.31 | 2.54
x1 = 0.1606 | 0.953 | 1.21 | 1.5 | 1.79 | 2.01 | 2.39 | 2.76 | 3.05 | 3.39
x1 = 0.3647 | 0.66 | 0.879 | 1.09 | 1.37 | 1.65 | 1.9 | 2.12 | 2.41 | 2.75

viscosity [mPa·s], 101 kPa
Details | 278.15 K | 288.15 K | 298.15 K | 308.15 K | 318.15 K | 328.15 K | 338.15 K | 348.15 K | 358.15 K
x1 = 0.05995 | – | 3.56 | 2.86 | 2.367 | 1.965 | 1.682 | 1.446 | 1.27 | 1.126
x1 = 0.1606 | 7.89 | 5.88 | 4.56 | 3.66 | 2.99 | 2.51 | 2.138 | 1.847 | 1.623
x1 = 0.3647 | 20.1 | 13.94 | 10.18 | 7.75 | 6.1 | 4.93 | 4.08 | 3.44 | 2.95
x1 = 1 | 163.6 | 96.2 | 60.6 | 40.8 | 28.9 | 21.3 | 16.29 | 12.82 | 10.34

O + C[C@H](N)C(=O)O + CCCCCCCCCCCCCCCC[n+]1ccccc1.[Cl-]
Details | electrical conductivity [S/m]
308.15 K, 101 kPa, x2 = 0, x3 = 0 | 6.7e-05

CCC[N+]1(C)CCCC1.O=S(=O)([N-]S(=O)(=O)C(F)(F)F)C(F)(F)F + CCCCCCCCCCCCCC[P+](CCCCCC)(CCCCCC)CCCCCC.O=S(=O)([N-]S(=O)(=O)C(F)(F)F)C(F)(F)F
313.15 K, 101 kPa, x2 = 0.75
Details | electrical conductivity [S/m] | viscosity [mPa·s]
– | 0.0308 | 135

CCCC[n+]1ccn(C)c1.F[B-](F)(F)F + ClC(Cl)Cl
298.15 K, 101 kPa, x2 = 0
Details | electrical conductivity [S/m] | viscosity [mPa·s]
– | 0.194 | 116

CCC[N+]1(C)CCCC1.O=S(=O)([N-]S(=O)(=O)C(F)(F)F)C(F)(F)F + CCC[N+](C)(C)C.O=S(=O)([N-]S(=O)(=O)C(F)(F)F)C(F)(F)F
Details | viscosity [mPa·s]
298.15 K, 101.3 kPa, x2 = 0 | 61

O + CCCCCCCCCCCCCC[n+]1ccccc1.O=C([O-])C(O)c1ccccc1 + CC(C)C[C@H](N)C(=O)O
101 kPa, x2 = 0, x3 = 0
Details | electrical conductivity [S/m]
293.15 K | 0.00012
298.15 K | 0.00015
303.15 K | 0.00016
308.15 K | 0.00017
313.15 K | 0.00019

O=C1CCCCCN1 + CCO + CCCC[N+](CCCC)(CCCC)CCCC.[Cl-]
electrical conductivity [S/m], 101 kPa
Details | x1 = 0.0058, x3 = 0.0058 | x1 = 0.00584, x3 = 0.0058 | x1 = 0.00587, x3 = 0.00587 | x1 = 0.0059, x3 = 0.0059 | x2 = 0.555, x1 = 0.2225 | x2 = 0.6648, x1 = 0.1676 | x2 = 0.7728, x1 = 0.1136 | x2 = 0.8892, x1 = 0.0554
295.65 K | – | – | – | – | 0.218 | 0.2632 | 0.3032 | –
298.15 K | – | – | – | – | 0.232 | 0.268 | 0.31 | –
300.65 K | – | 0.0588 | – | – | 0.241 | 0.269 | 0.3143 | –
303.15 K | – | – | – | 0.0587 | 0.256 | 0.27 | 0.317 | 0.25
305.65 K | – | 0.0586 | – | – | 0.2704 | 0.2713 | 0.317 | 0.25
308.15 K | – | 0.0585 | – | – | 0.2842 | 0.2737 | 0.319 | 0.249
310.65 K | – | – | – | 0.0585 | 0.2936 | 0.276 | 0.3224 | 0.248
313.15 K | – | 0.0585 | – | – | 0.3023 | 0.278 | 0.325 | 0.248
315.65 K | – | – | – | 0.0587 | 0.308 | 0.28 | 0.328 | 0.248
318.15 K | – | – | – | 0.0587 | 0.3136 | 0.2821 | 0.329 | 0.248
320.65 K | – | 0.0587 | – | – | 0.3131 | 0.2841 | 0.3303 | 0.246
323.15 K | – | 0.0586 | – | – | 0.315 | 0.287 | 0.329 | 0.245
325.65 K | 0.0584 | – | – | – | 0.3129 | 0.288 | 0.327 | 0.246
328.15 K | 0.0576 | – | – | – | – | 0.289 | – | 0.246
330.65 K | – | 0.0569 | – | – | – | 0.288 | – | 0.245
333.15 K | – | – | 0.0562 | – | – | 0.288 | – | 0.245
